Measurements from article PMC7466059, “Synthesis and Ex Vivo Trans-Corneal Permeation of Penetratin Analogues as Ophthalmic Carriers: Preliminary Results” (Pharmaceutics, 2020).
Marks after values point to notes of the source that are not given here. Peptide text beside a SMILES is read from it. * marks the point of attachment. 5FAM = O=C1OC2(c3ccc(O)cc3Oc3cc(O)ccc32)c2ccc(C(=O)*)cc21

Test: Ex vivo trans-corneal permeation, Franz-type diffusion cells
Format: in vitro ADME, pig
Conditions: ex vivo porcine cornea, area 0.2 cm^2, 37 °C, 6 h, fluorescence 485/535 nm, mean ± sd
Procedure: Permeation experiments across freshly porcine cornea were performed following a method previously reported. In detail, transparent porcine corneas were isolated from fresh pig eyes (breed: Large White and Landrace; weight: 145–190 kg; age: 10–11 months; sex: female and male; Macello Annoni SpA, Busseto, Italy) and supported by glass Franz-type diffusion cells, having a permeation area of 0.2 cm^2. The epithelial side was in contact with the donor, i.e., 200 µL of aqueous solution containing a peptide: each concentration and solvent are indicated in Table 2. Donor concentrations were selected based on different solubility and analytical sensitivity (see paragraph 2.4 and Table S2). For some peptides, the solubilization was improved by dissolving the raw material using small amount of DMSO (final concentration less than 5% v/v), and then PBS or PBS+0.1% BSA were alternately added.
To fill the receptor compartment, around 4 mL of degassed PBS or PBS+0.1% BSA was used (see Table 2), being kept at 37 °C and maintained under magnetic stirring to avoid any boundary layer effect. The presence of 0.1% BSA aids in preventing peptides aggregation. Permeation experiments lasted 6 h, and for quantification purposes, 200 µL of the receiving solution were collected every hour and reintegrated with fresh medium. Each condition was replicated between 3 and 4 times, using cornea isolated from different animals.
Permeation samples were analysed without preliminary separation by fluorescence, using a Spark 10M microplate reader (Tecan Trading AG, Switzerland); excitation and emission wavelengths were 485 nm and 535 nm, respectively. Standard solutions were prepared in PBS pH 7.4 or in PBS containing BSA 0.1%. RSD% (relative standard deviation %) was lower than 10%, while ER% (relative error %) resulted lower than 15%.
The amount of CPP permeated across the cornea (nmol/cm^2) is plotted against time (hour): the slope of the regression line at steady state represents the trans-corneal flux J (nmol/cm^2 h). The apparent permeability coefficient Papp (cm/s) is then calculated as Equation (1): Papp = J/c(1) being c (µM) the concentration of the donor solution. Papp allows for a direct comparison among permeants studied using different donor concentrations.

[1] = donor 250 µM, 200 µL, donor and receiving solutions PBS pH 7.4, n = 3-4
[2] = donor 100 µM, 200 µL, donor and receiving solutions PBS+BSA 0.1% pH 7.4, n = 3

SMILES | Papp (apparent permeability coefficient) [1] | Papp (apparent permeability coefficient) (donor 100 µM in PBS pH 7.4, receiving solution PBS+BSA 0.1% pH 7.4, n = 3) | Papp (apparent permeability coefficient) [2]
CC[C@H](C)[C@H](NC(=O)[C@H](Cc1c[nH]c2ccccc12)NC(=O)[C@H](Cc1ccccc1)NC(=O)[C@H](CCC(N)=O)NC(=O)[C@H](CC(N)=O)NC(=O)[C@H](CCCNC(=N)N)NC(=O)[C@H](CCCNC(=N)N)NC(=O)[C@H](CCSC)NC(=O)CNC(=O)CNC(=O)c1ccc2c(c1)C(=O)OC21c2ccc(O)cc2Oc2cc(O)ccc21)C(N)=O [PNT-R 3] (5FAM-GGMRRNQFWI-NH2) | 0.002 ± 0.004 × 10^−6 cm/s | – | –
CC[C@H](C)[C@H](NC(=O)[C@H](CCCCN)NC(=O)[C@@H](NC(=O)[C@H](CCC(N)=O)NC(=O)[C@H](CCCNC(=N)N)NC(=O)CNC(=O)CNC(=O)c1ccc2c(c1)C(=O)OC21c2ccc(O)cc2Oc2cc(O)ccc21)[C@@H](C)CC)C(=O)N[C@@H](Cc1c[nH]c2ccccc12)C(=O)N[C@@H](Cc1ccccc1)C(=O)N[C@@H](CCC(N)=O)C(N)=O [PNT-GG 5] (5FAM-GGRQIKIWFQ-NH2) | – | 0.50 ± 0.70 ^d × 10^−6 cm/s | 0.24 ± 0.40 ^d × 10^−6 cm/s
CC[C@H](C)[C@H](NC(=O)[C@H](CCCCN)NC(=O)[C@@H](NC(=O)[C@H](Cc1c[nH]c2ccccc12)NC(=O)[C@H](Cc1ccccc1)NC(=O)[C@H](CCC(N)=O)NC(=O)CNC(=O)CNC(=O)c1ccc2c(c1)C(=O)OC21c2ccc(O)cc2Oc2cc(O)ccc21)[C@@H](C)CC)C(=O)N[C@@H](CCC(N)=O)C(=O)N[C@@H](CCCNC(=N)N)C(N)=O [PNT-R 1] (5FAM-GGQFWIKIQR-NH2) | 0.93 ± 0.53 × 10^−6 cm/s | – | –
CC[C@H](C)[C@H](NC(=O)[C@H](CCCCN)NC(=O)[C@@H](NC(=O)[C@H](Cc1c[nH]c2ccccc12)NC(=O)[C@H](Cc1ccccc1)NC(=O)[C@H](CCC(N)=O)NC(=O)[C@H](CC(N)=O)NC(=O)[C@H](CCCNC(=N)N)NC(=O)CNC(=O)CNC(=O)c1ccc2c(c1)C(=O)OC21c2ccc(O)cc2Oc2cc(O)ccc21)[C@@H](C)CC)C(N)=O [PNT-R 2] (5FAM-GGRNQFWIKI-NH2) | 0.23 ± 0.16 × 10^−6 cm/s | – | –
CC[C@H](C)[C@H](NC(=O)CNC(=O)CNC(=O)c1ccc2c(c1)C(=O)OC21c2ccc(O)cc2Oc2cc(O)ccc21)C(=O)N[C@@H](Cc1c[nH]c2ccccc12)C(=O)N[C@@H](Cc1ccccc1)C(=O)N[C@@H](CCC(N)=O)C(=O)N[C@@H](CC(N)=O)C(=O)N[C@@H](CCCNC(=N)N)C(=O)N[C@@H](CCCNC(=N)N)C(=O)N[C@@H](CCSC)C(N)=O [PNT-GG 3] (5FAM-GGIWFQNRRM-NH2) | – | – | 0.44 ± 0.50 × 10^−6 cm/s
CSCC[C@H](NC(=O)[C@H](CCCNC(=N)N)NC(=O)[C@H](CCCNC(=N)N)NC(=O)[C@H](CC(N)=O)NC(=O)[C@H](CCC(N)=O)NC(=O)[C@H](Cc1ccccc1)NC(=O)CNC(=O)CNC(=O)c1ccc2c(c1)C(=O)OC21c2ccc(O)cc2Oc2cc(O)ccc21)C(=O)N[C@@H](CCCCN)C(=O)N[C@@H](Cc1c[nH]c2ccccc12)C(N)=O [PNT-GG 2] (5FAM-GGFQNRRMKW-NH2) | – | – | 0.55 ± 0.57 × 10^−6 cm/s
CSCC[C@H](NC(=O)[C@H](CCCCN)NC(=O)[C@H](Cc1c[nH]c2ccccc12)NC(=O)[C@H](CCCCN)NC(=O)[C@H](CCCCN)NC(=O)CNC(=O)CNC(=O)c1ccc2c(c1)C(=O)OC21c2ccc(O)cc2Oc2cc(O)ccc21)C(=O)N[C@@H](CCCNC(=N)N)C(=O)N[C@@H](CCCNC(=N)N)C(=O)N[C@@H](CC(N)=O)C(N)=O [PNT-R 5] (5FAM-GGKKWKMRRN-NH2) | 0.05 ± 0.01 × 10^−6 cm/s | – | –
